{"source": "patent US20180353445A1", "about": "“METHODS AND COMPOSITIONS RELATING TO PROTEASOME INHIBITOR RESISTANCE” (Whitehead Institute for Biomedical Research, priority 2017, published 2018)", "system": "K562 cells", "assay": "K562 viability and cell proliferation (relative cell number count), incl. FDX1 KO cells", "assay_type": "cell-based, human", "conditions": "FDX1-null cell line versus non-targeting control sgRNA", "description": "Despite its use in clinical trials on a limited number of malignancies, the elesclomol mechanism of action remains unclear. We therefore undertook a genetic approach to identify its direct target and to define cellular pathways that modulate the sensitivity of cancer cells to elesclomol-induced toxicity. […] We measured the relative abundance of each sgRNA in the compound-treated K562 cells at the beginning and end of the culture period. For each gene, we calculated its score as the mean log2 fold-change in abundance of all sgRNAs targeting the gene. […]\nViability and cell proliferation assays—Relative cell number count protocol—The viability of K562 cells was conducted by seeding cells at 250,000 cells/mL in 6-well plates of RPMI. […] Viable cell numbers were counted using countess (Invitrogen) every 2-3 days and cells were reseeded at 250,000 cells/mL in 6-well plates of RPMI to continue growth.\nThe viability of FDX1 KO K562 cells and AAVS1 KO and WT controls was examined by plating 100,000 cells/mL in 6-well cells in RPMI media (without glucose containing dialyzed serum) with either 10 mM glucose or 10 mM galactose. Viable cell numbers were counted every day using countess (Invitrogen).", "data": [{"smiles": "CN(NC(=O)CC(=O)NN(C)C(=S)c1ccccc1)C(=S)c1ccccc1", "note": "[elesclomol]", "values": [{"measurement": "effect of loss of FDX1 protein on sensitivity", "result": "confers relative resistance"}]}]}
